{"source": "ChEMBL document CHEMBL1127212", "about": "“Preparation and evaluation of the antiaggregating and vasodilating activities of the novel 3-nitro-4(3H)-quinazolinone derivatives” (Bioorg Med Chem Lett, 1993)", "assay_type_in_all_cases": "functional", "key": {"Oryctolagus cuniculus [1]": {"organism": "Oryctolagus cuniculus", "assay": "Tested for vasodilating activity using a transverse strip preparation of rabbit thoracic aorta"}, "Oryctolagus cuniculus [2]": {"organism": "Oryctolagus cuniculus", "assay": "Tested for inhibition of aggregation induced by Collagen in rabbit platelet rich plasma in vitro at the dose of 10 ug/ml"}, "Oryctolagus cuniculus [3]": {"organism": "Oryctolagus cuniculus", "assay": "Tested for inhibition of aggregation induced by adenosine diphosphate (ADP) in rabbit platelet rich plasma in vitro at the dose of […]"}, "Oryctolagus cuniculus [4]": {"organism": "Oryctolagus cuniculus", "assay": "Tested for inhibition of aggregation induced by arachidonic acid in rabbit platelet rich plasma in Vitro at the dose of 125 uM"}, "Oryctolagus cuniculus [5]": {"organism": "Oryctolagus cuniculus", "assay": "Tested in vitro for inhibition of aggregation induced by Collagen in rabbit platelet rich plasma at the dose of 10 ug/ml"}, "Oryctolagus cuniculus [6]": {"organism": "Oryctolagus cuniculus", "assay": "Tested in vitro for inhibition of aggregation induced by adenosine diphosphate (ADP) in rabbit platelet rich plasma at the dose of […]"}, "Oryctolagus cuniculus [7]": {"organism": "Oryctolagus cuniculus", "assay": "Tested in vitro for inhibition of aggregation induced by arachidonic acid in rabbit platelet rich plasma at the dose of 125 uM"}}, "data": [{"compound": "CC(=O)OC1N([N+](=O)[O-])C(=O)c2ccccc2N1[N+](=O)[O-]", "note": "(stereo unspecified)", "values": [{"measurement": "pD2", "setting": "Oryctolagus cuniculus [1]", "value": 5.36}, {"measurement": "IC50", "setting": "Oryctolagus cuniculus [2]", "value": 52, "unit": "µM"}, {"measurement": "IC50", "setting": "Oryctolagus cuniculus [3]", "value": 48, "unit": "µM"}, {"measurement": "IC50", "setting": "Oryctolagus cuniculus [4]", "value": 50, "unit": "µM"}]}, {"compound": "CC(=O)OC1N([N+](=O)[O-])C(=O)c2cc(Cl)ccc2N1[N+](=O)[O-]", "note": "(stereo unspecified)", "values": [{"measurement": "pD2", "setting": "Oryctolagus cuniculus [1]", "value": 5.4}, {"measurement": "IC50", "setting": "Oryctolagus cuniculus [5]; Oryctolagus cuniculus, Plasma", "value": 52, "unit": "µM"}, {"measurement": "IC50", "setting": "Oryctolagus cuniculus [6]; Oryctolagus cuniculus, Plasma", "value": 46, "unit": "µM"}, {"measurement": "IC50", "setting": "Oryctolagus cuniculus [7]", "value": 40, "unit": "µM"}]}, {"compound": "SODIUM NITROPRUSSIDE [listing 1 of 2 here]", "values": [{"measurement": "pD2", "setting": "Oryctolagus cuniculus [1]", "value": 4.08}]}, {"compound": "SODIUM NITROPRUSSIDE [listing 2 of 2 here]", "values": [{"measurement": "IC50", "setting": "Oryctolagus cuniculus [5]", "value": "< 1000", "unit": "µM"}, {"measurement": "IC50", "setting": "Oryctolagus cuniculus [6]", "value": 95, "unit": "µM"}]}]}
